Target: MAPK14 (UniProt Q16539)
Assay: Inhibition of MAPK14 Kinase Activity

Chain of MAPK14 (Q16539 whole entry, looked up): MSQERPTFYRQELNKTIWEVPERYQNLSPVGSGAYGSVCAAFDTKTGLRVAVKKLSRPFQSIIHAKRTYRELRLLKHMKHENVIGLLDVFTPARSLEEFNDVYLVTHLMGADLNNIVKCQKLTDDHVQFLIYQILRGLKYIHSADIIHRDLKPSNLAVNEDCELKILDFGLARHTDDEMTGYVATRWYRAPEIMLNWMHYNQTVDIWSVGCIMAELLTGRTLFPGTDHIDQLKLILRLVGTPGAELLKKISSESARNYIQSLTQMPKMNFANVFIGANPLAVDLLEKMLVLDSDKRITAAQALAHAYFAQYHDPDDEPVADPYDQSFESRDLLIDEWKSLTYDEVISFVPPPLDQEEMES

Question: Which IC50 does the source give for COc1ccc(C(F)(F)F)cc1NC(=O)Nc1ccc(Oc2cc(C)nc(NCCN3CCCC3)n2)c2ccccc12 here?
Answer: < 1000 nM

Question: For COc1ccc(C(C(F)(F)F)C(F)(F)F)cc1NC(=O)Nc1ccc(Oc2cc(C)nc(NCCN(C)C)n2)c2ccccc12, which IC50 is on record?
Answer: < 1000 nM

Question: With COc1c(NC(=O)Nc2ccc(Oc3cc(C)nc(C)n3)c3ccccc23)cc(C(F)(F)F)cc1NS(C)(=O)=O as the compound, how does the IC50 read?
Answer: < 1000 nM

Question: How did the IC50 turn out when COc1ccc(OC(F)(F)F)cc1NC(=O)Nc1ccc(Oc2cc(C)nc(OCCn3ccnc3)n2)c2ccccc12 was run?
Answer: < 1000 nM

Question: For COc1ccc(C(F)(F)F)cc1NC(=O)Nc1ccc(Oc2cc(C)nc(CN3CCN(C)CC3)n2)c2ccccc12, which IC50 is on record?
Answer: < 1000 nM

Question: With COc1nc(C)cc(Oc2ccc(NC(=O)Nc3cc(C(F)(F)F)ccc3OC)c3ccccc23)n1 as the compound, how does the IC50 read?
Answer: < 1000 nM

Question: Which IC50 does the source give for COc1ccc(C(F)(F)F)cc1NC(=O)Nc1ccc(Oc2cc(C)nc(CN3CCOCC3)n2)c2ccccc12 here?
Answer: < 1000 nM

Question: With COc1ccc(C(F)(F)F)cc1NC(=O)Nc1ccc(Oc2cc(C)nc(N)n2)c2ccccc12 as the compound, how does the IC50 read?
Answer: < 1000 nM

Question: With CCNc1nc(C)cc(Oc2ccc(NC(=O)Nc3cc(OC(F)(F)F)ccc3OC)c3ccccc23)n1 as the compound, how does the IC50 read?
Answer: < 1000 nM

Question: Which IC50 does the source give for COc1ccc(C(F)(F)C(F)(F)F)cc1NC(=O)Nc1ccc(Oc2cc(C)nc(N)n2)c2ccccc12 here?
Answer: < 1000 nM

Question: For COc1ccc(CC(F)(F)F)cc1NC(=O)Nc1ccc(Oc2cc(C)nc(OCC3CCN(C)CC3)n2)c2ccccc12, which IC50 is on record?
Answer: < 1000 nM

Question: With CCNc1nc(C)cc(Oc2ccc(NC(=O)Nc3cc(C(F)(F)F)ccc3OC)c3ccccc23)n1 as the compound, how does the IC50 read?
Answer: < 1000 nM

Question: With COc1ccc(C(C)C(F)(F)F)cc1NC(=O)Nc1ccc(Oc2cc(C)nc(N)n2)c2ccccc12 (centres undefined) as the compound, how does the IC50 read?
Answer: < 1000 nM

Question: Which IC50 does the source give for COc1ccc(CC(F)(F)F)cc1NC(=O)Nc1ccc(Oc2cc(C)nc(NCCCN3CCOCC3)n2)c2ccccc12 here?
Answer: < 1000 nM

Question: Which IC50 does the source give for COc1ccc(C(F)(F)F)cc1NC(=O)Nc1ccc(Oc2cc(C)nc(NCCN3CCOCC3)n2)c2ccccc12 here?
Answer: < 1000 nM

Question: With COc1ccc(C(F)(F)F)cc1NC(=O)Nc1ccc(Oc2cc(C)nc(NCC(O)CO)n2)c2ccccc12 (centres undefined) as the compound, how does the IC50 read?
Answer: < 1000 nM

Question: How did the IC50 turn out when COc1ccc(C(F)(F)F)cc1NC(=O)Nc1ccc(Oc2cc(C)nc(CN(C)C)n2)c2ccccc12 was run?
Answer: < 1000 nM

Question: For COc1ccc(OC(F)(F)F)cc1NC(=O)Nc1ccc(Oc2cc(C)nc(NCCN(C)C)n2)c2ccccc12, which IC50 is on record?
Answer: < 1000 nM

Question: Which IC50 does the source give for COc1ccc(C(F)(F)F)cc1NC(=O)Nc1ccc(Oc2cc(C)nc(NCC3CCCO3)n2)c2ccccc12 (centres undefined) here?
Answer: < 1000 nM

Question: How did the IC50 turn out when COc1ccc(C(F)(F)F)cc1NC(=O)Nc1ccc(Oc2cc(C)nc(NC(C)C)n2)c2ccccc12 was run?
Answer: < 1000 nM

Question: COc1ccc(CC(F)(F)F)cc1NC(=O)Nc1ccc(Oc2cc(C)nc(N)n2)c2ccccc12 was tested. Which IC50 did it give?
Answer: < 1000 nM

Question: For COc1ccc(OC(F)(F)F)cc1NC(=O)Nc1ccc(Oc2cc(C)nc(CN3CCN(C)CC3)n2)c2ccccc12, which IC50 is on record?
Answer: < 1000 nM

Question: How did the IC50 turn out when COCCNc1nc(C)cc(Oc2ccc(NC(=O)Nc3cc(OC(F)(F)F)ccc3OC)c3ccccc23)n1 was run?
Answer: < 1000 nM

Question: How did the IC50 turn out when COc1ccc(CC(F)(F)F)cc1NC(=O)Nc1ccc(Oc2cc(C)nc(NCCCN(C)C)n2)c2ccccc12 was run?
Answer: < 1000 nM

Question: For COc1ccc(OC(F)(F)F)cc1NC(=O)Nc1ccc(Oc2cc(C)nc(NCCCN3CCOCC3)n2)c2ccccc12, which IC50 is on record?
Answer: < 1000 nM

Question: For COc1ccc(C(C(F)(F)F)C(F)(F)F)cc1NC(=O)Nc1ccc(Oc2cc(C)nc(CN3CCOCC3)n2)c2ccccc12, which IC50 is on record?
Answer: < 1000 nM

Question: COc1ccc(OC(F)(F)F)cc1NC(=O)Nc1ccc(Oc2cc(C)nc(NCCN3CCCC3)n2)c2ccccc12 was tested. Which IC50 did it give?
Answer: < 1000 nM

Question: How did the IC50 turn out when CNc1nc(C)cc(Oc2ccc(NC(=O)Nc3cc(OC(F)(F)F)ccc3OC)c3ccccc23)n1 was run?
Answer: < 1000 nM

Question: How did the IC50 turn out when COc1ccc(C(F)(F)F)cc1NC(=O)Nc1ccc(Oc2cc(C)nc(C)n2)c2ccccc12 was run?
Answer: < 1000 nM

Question: COCCNc1nc(C)cc(Oc2ccc(NC(=O)Nc3cc(C(F)(F)F)ccc3OC)c3ccccc23)n1 was tested. Which IC50 did it give?
Answer: < 1000 nM

Question: How did the IC50 turn out when COc1ccc(OC(F)(F)F)cc1NC(=O)Nc1ccc(Oc2cc(C)nc(CN3CCOCC3)n2)c2ccccc12 was run?
Answer: < 1000 nM

Question: For COc1ccc(C(F)(F)F)cc1NC(=O)Nc1ccc(Oc2cc(C)nc(NC3CC3)n2)c2ccccc12, which IC50 is on record?
Answer: < 1000 nM

Question: How did the IC50 turn out when COc1ccc(C(F)(F)F)cc1NC(=O)Nc1ccc(Oc2cc(C)nc(NCC3CC3)n2)c2ccccc12 was run?
Answer: < 1000 nM

Question: CNc1nc(C)cc(Oc2ccc(NC(=O)Nc3cc(C(F)(F)F)ccc3OC)c3ccccc23)n1 was tested. Which IC50 did it give?
Answer: < 1000 nM

Question: With COc1ccc(OC(F)(F)F)cc1NC(=O)Nc1ccc(Oc2cc(C)nc(CN(C)C)n2)c2ccccc12 as the compound, how does the IC50 read?
Answer: < 1000 nM

Question: With COc1ccc(OC(F)(F)F)cc1NC(=O)Nc1ccc(Oc2cc(C)nc(CN3CCCC3)n2)c2ccccc12 as the compound, how does the IC50 read?
Answer: < 1000 nM

Question: How did the IC50 turn out when COc1ccc(C(C(F)(F)F)C(F)(F)F)cc1NC(=O)Nc1ccc(Oc2cc(C)nc(N)n2)c2ccccc12 was run?
Answer: < 1000 nM

Question: COCC(C)Nc1nc(C)cc(Oc2ccc(NC(=O)Nc3cc(C(F)(F)F)ccc3OC)c3ccccc23)n1 (centres undefined) was tested. Which IC50 did it give?
Answer: < 1000 nM

Question: Which IC50 does the source give for COc1ccc(C(F)(F)F)cc1NC(=O)Nc1ccc(Oc2cc(C)nc(NCCN(C)C)n2)c2ccccc12 here?
Answer: < 1000 nM

Reference: the Kinase Knowledgebase extract (Sharma et al. 2016)
